Each block holds one molecule with its values, some of them ahead of it.
Tests used:
Caco-2 monolayers = assay: TEER of Caco-2 monolayers with MCFA sodium salts; type: cell-based; settings: sodium salts with 3H-TRH, over 2 hours, concentrations of Table 1
Procedure: Cell Culture: Caco-2 cells were cultured in Dulbecco's Modified Eagles Medium (DMEM) 4.5 g/L glucose supplemented with 1% (v/v) non-essential amino acids; 10% fetal calf serum and 1% penicillin/streptomycin. […] The cells were grown and expanded in standard tissue culture flasks and were passaged once they attained 100% confluence. The Caco-2 cells were then seeded on polycarbonate filter inserts (Costar; 12 mm diameter, 0.4 μm pore size) at a density of 5×10^5 cells/cm^2 and incubated in six well culture plates with a medium change every second day. Confluent monolayers between day 20 and day 30 seeding on filters and at passages 30-40 were used throughout these studies.
The transport experiments were performed in Hank's Balanced Salt Solution (HBSS) containing 25 mM N[2-hydroxyethyl]-piperazine-N′-[2-ethanesulfonic acid] (HEPES) buffer, pH 7.4 at 37° C. Due to variations in solubilities, various concentrations of the different MCFA sodium salts and various apical buffers were used as shown in Table 1. In all cases the basolateral chamber contained regular HBSS+HEPES.
After removing the cell culture medium, the monolayers were placed in wells containing prewarmed HBSS (37° C.); 1 ml apically and 2 ml basolaterally. Monolayers were incubated at 37° C. for 30 mins. Then at time zero, apical HBSS was replaced with the relevant apical test solution containing the radiolabelled compounds with and without the enhancer compound. […] The plates were placed on an orbital shaker in an incubator (37° C.). Transport across the monolayers was followed by basolateral sampling (1 ml) at 30 min. intervals up to 120 mins. At each 30 min. interval each insert was transferred to a new well containing 2 ml fresh prewarmed HBSS. Apical stock radioactivity was determined by taking 10 μl samples at t=0 and t=120 mins. […] Mean values for ^3H-TRH concentrations were calculated for the apical and basolateral solutions at each time point.

[1] = Closed loop rat model, intraduodenal TRH with enhancer, serum TRH; type: in vivo, Male Wistar rats; settings: 500 μg or 1000 μg TRH with 35 mg enhancer, interduodenal bolus
Procedure: Male Wistar rats (weight range 250 g-350 g) were anaesthetized with ketamine hydrochloride/acepromazine. […] All intraduodenal dose volumes (for samples and control) were 1 ml/kg. The proximal end of the segment was ligated and the loop was sprayed with isotonic saline (37° C.) to provide moisture and then replaced in the abdominal cavity avoiding distension. The incision was closed with surgical clips. A group of animals were administered TRH in PBS (100 μg in 0.2 ml) by subcutaneous injection as a reference.

anti-factor Xa activity [2] = assay: Closed-loop rat segment, intraileal USP heparin with enhancer, anti-factor Xa response; settings: USP heparin 1000 IU
Procedure: The procedure carried out in Example 1(a) above was repeated using USP heparin in place of TRH and dosing intraileally rather than intraduodenally. A mid-line incision was made in the abdomen and the distal end of the ileum located (about 10 cm proximal to the ileo-caecal junction). 7-9 cm of tissue was isolated and the distal end ligated, taking care to avoid damage to surrounding blood vessels. Heparin absorption as indicated by […] (APTT) response was measured by placing a drop of whole blood (freshly sampled from the tail artery) on the test cartridge of Biotrack 512 coagulation monitor. APTT measurements were taken at various time points.
Citrated blood samples were centrifuged at 3000 rpm for 15 mins. to obtain plasma for anti-factor Xa analysis. […] The control in each case is a solution of the same heparin concentration containing no enhancer.

APTT = assay: Closed-loop rat segment, intraileal USP heparin with enhancer, APTT response; type: in vivo; settings: USP heparin 1000 IU, enhancer 10 and 35 mg
Excerpt: APTT measurements were taken at various time points.

[3] = cited from earlier work
anti-factor Xa activity [4] = assay: Intraduodenal LMWH with enhancers in rats (open loop), anti-factor Xa; type: in vivo, Male Wistar rats; settings: 1000 IU parnaparin sodium intraduodenally
anti-factor Xa activity [5] = assay: Site of administration of LMWH with sodium caprate in dogs, anti-factor Xa; type: in vivo, beagle dogs; settings: 45,000 IU LMWH and 0.55 g sodium caprate, oral, intrajejunal, intracolonic
Excerpt: Four beagle dogs (10-15 Kg) were surgically fitted with catheters to the jejunum and colon respectively. […] 3,200 IU Fluxum™ SC was included in the study as a subcutaneous reference.

Molecule: CCCCCCCCCCCC(=O)[O-].[Na+] [Batch C12, sodium laurate]
effect on TEER (Ωcm^2) compared to the control (Caco-2 monolayers): some cell damage (reduction in TEER)

Molecule: CCCCCCCCCCCCCC(=O)[O-].[Na+] [Batch C14]
effect on TEER (Ωcm^2) compared to the control (Caco-2 monolayers): minimal reduction in TEER

Molecule: CCCCCCCCCCCCCCCCCC(=O)[O-].[Na+] [Batch C18]
effect on TEER (Ωcm^2) compared to the control (Caco-2 monolayers): minimal reduction in TEER

serum levels of TRH over the control TRH solution [1]: significantly increases
Molecule: CCCCCCCC(=O)[O-].[Na+] [NaC8, sodium caprylate]

Molecule: CCCCCCCCCC(=O)[O-].[Na+] [NaC10, sodium caprate]
anti-factor Xa activity relative to control heparin solution (anti-factor Xa activity [2]; enhancer 10 mg): significant increase in anti-factor Xa activity | anti-factor Xa activity relative to control heparin solution (anti-factor Xa activity [2]; enhancer 35 mg): significant increase in anti-factor Xa activity | heparin absorption by APTT response compared to control heparin solution (APTT): significant increase in absorption | effect on TEER (Ωcm^2) compared to the control (Caco-2 monolayers): minimal reduction in TEER | serum levels of TRH over the control TRH solution [1]: significantly increases

Molecule: NCCCC(O)(P(=O)(O)O)P(=O)(O)O [alendronate, Alendronate monosodium trihydrate]
further share of the dose absorbed excreted in the urine ([3]; over the next 64 hours): 5% | share of the dose absorbed excreted in the urine ([3]; within 8 hours, oral conventional forms): 40%

systemic delivery of LMWH in the absence of enhancer (anti-factor Xa activity [4]): relatively poor | intestinal absorption of LMWH versus absorption from the stomach (anti-factor Xa activity [5]): considerably higher
Molecule: parnaparin sodium [LMWH]

Source: patent publication US8883203B2, “Solid oral dosage form containing an enhancer” (Merrion Research III Limited, priority 2006, dated 2014)
